Measured values: patent US20070004653A1, “Stable lyophilized anthracycline glycosides” (priority 2005, published 2007)

Tests used:
[1] = Preparation of stable lyophilized anthracycline glycoside hydrochlorides: aglycone and dimer in the lyophilized product; assay type: physicochemical; details: frozen and lyophilized
Protocol: (§1) Idarubicin hydrochloride (500 mg) was dissolved in water (50 ml) and acetic acid and ammonium acetate (both 1.5% molar amount with respect to the molar amount of idarubicin hydrochloride) were added. The solution was frozen and lyophilized.
as §1, with “Charcoal was then added (100 g) and the solution was stirred for two hours. After that, the suspension was filtered through 0.4 micron membrane and then the” for “The”
Doxorubicin hydrochloride (500 mg) was dissolved in water (20 ml) and the pH corrected to 3.5 with acetic acid at room temperature. The solution was then warmed to 60° C. for 2 hours and then ammonium acetate (1.5% molar amount with respect to the molar amount of doxorubicin hydrochloride) was added. Then the solution was quickly frozen and lyophilized.
(§2) Epirubicin hydrochloride (1550 mg) was dissolved in water (100 ml) and the pH corrected to 3.2-3.8 with hydrochloric acid at room temperature. The solution was then warmed to 60° C.-65° C. for 1 hours and then the solution was cooled to 50-60° C. At the same time, the pH was corrected to 4.5-5.0 with sodium hydroxide. Then the solution was quickly frozen and lyophilized.
Idarubicin hydrochloride (5.0 g) was dissolved in water (500 ml). Then 58 microlitres of AMBERLITE® IRA-67 (1.6M) acetate (meaning 1.0% molar amount with respect to the molar amount of idarubicin hydrochloride) and 4.5 mg of acetic acid (meaning 0.8% molar amount with respect to the molar amount of idarubicin hydrochloride) were added. The suspension was slurried for two hours, then filtered, frozen and lyophilized.
Doxorubicin hydrochloride (5.0 g) was dissolved in water (200 ml) and the pH corrected to 4.6-4.8 with IN hydrochloric acid at room temperature. Then 80 microlitres of AMBERLITE® IRA-67 (1.6M) acetate (meaning 1.5% molar amount with respect to the molar amount of doxorubicin hydrochloride) was added. The solution was then filtered, frozen and lyophilized.
as §2, with “was” for “was then”, “hour” for “hours”, “AMBERLITE® IRA-67 free base.” for “sodium hydroxide.”, “filtered, frozen,” for “frozen”

[2] = cited from earlier work

CC(=O)[C@]1(O)Cc2c(O)c3c(c(O)c2[C@@H](O[C@H]2C[C@@H](N)[C@H](O)C(C)O2)C1)C(=O)c1ccccc1C3=O.Cl (stereo partly shown) [Idarubicin HCl, Idarubicin hydrochloride]
aglycone contained in lyophilized product ([1]; Example 38: acetic acid and ammonium acetate, both 1.5% molar): 0.12%
aglycone contained in lyophilized product ([1]; Example 39: acetic acid and ammonium acetate, both 1.5% molar, charcoal, filtered): 0.02%
aglycone contained in lyophilized product ([1]; Example 42: AMBERLITE IRA-67 acetate 1.0% molar and acetic acid 0.8% molar, slurried two hours, filtered): 0.09%
pH in a 0.5% w/v solution in water [2]: 5.0-6.5
